Measurements: publication PMC10932281, “A Combination of β-Aescin and Newly Synthesized Alkylamidobetaines as Modern Components Eradicating the Biofilms of Multidrug-Resistant Clinical Strains of Candida glabrata” (International Journal of Molecular Sciences, 2024)
Like-named read-outs stand apart in the source and are kept apart here.

Legend:
[1] = Krafft temperature (TK); assay type: physicochemical
Protocol: CHNS elemental analysis was carried out by a Vario EL cube (Elementar, Germany) calibrated on acetanilide. Electrospray ionization mass spectroscopy (ESI-MS) (micrOTOF-Q instrument; Bruker Daltonics, Germany) allowed for the MS spectra to be obtained. The ESI-MS instrument was operated in the positive ion mode and calibrated with the Tunemix^TM mixture (Bruker Daltonics, Germany). The mass accuracy was better than 5 ppm. The obtained mass spectra were analyzed using DataAnalysis 3.4 software (Bruker Daltonics, Germany). ^1H NMR spectra were recorded on a Bruker AMX-500 spectrometer, using CDCl3 as a solvent. ^1H chemical shifts (in ppm) were calibrated to TMS as an internal reference. Melting points were determined using a Boetius melting point apparatus, while Krafft temperatures were determined according to the directions given in [47]. CMC is the minimum concentration above which micelles are formed in aqueous liquid. To obtain the CMC values, we used McGowan’s model. […] Molecular characteristic volumes (Vx) are found by the addition of the atomic characteristic volumes and the subtraction for the same factory (6.56 × 10^−6 m^3 mol^−1) for every covalent bond.

[2] = system: C. glabrata DSM 1226; parameters: method as in PMID 37508306; conditions: ref [12]; cited from earlier work
[3] = system: C. glabrata clinical isolate C27; parameters: method as in PMID 37508306; conditions: ref [12]; cited from earlier work
[4] = system: C. glabrata cells; parameters: method as in PMID 37508306; conditions: ref [12], cited from earlier work
[5] = system: C. glabrata clinical isolate C8 (C18); parameters: method as in PMID 37508306; conditions: ref [12]; cited from earlier work
[6] = system: C. glabrata 2586; assay: Interaction of AABs (3 µM) with antifungal agents, modified checkerboard; assay type: cell-based, Candida glabrata
[7] = system: C. glabrata ATCC 90030; assay: as above; assay type: cell-based, Candida glabrata
[8] = system: ERG11 and ALS3; parameters: method as in PMID 37508306; conditions: qRT-PCR; ref [12]; cited from earlier work
[9] = C9 at constant 3 µM, dilutions in µg/mL
[10] = C11 at constant 3 µM, dilutions in µg/mL
[11] = C13 at constant 3 µM, dilutions in µg/mL
[12] = C15 at constant 3 µM, dilutions in µg/mL

## CCCCCCCCCC(=O)N(C)CCC[N+](C)(C)CC(=O)[O-] [C9]
[1]
  TK (Krafft temperature): <0 °C

## β-aescin
[2]
  MFC: 160 µg/mL
  MIC: 80 µg/mL
[3]
  MFC: 100 µg/mL
  MIC: 50 µg/mL
[4]; 1 × MIC
  Increase versus control (FACS, membrane integrity): about 7.4%
[4]; 2 × MIC
  Increase versus control (FACS, membrane integrity): ~22%
[5]
  MFC: 100 µg/mL
  MIC: 40 µg/mL
[6]; C9 3 µM
  Multiplicity factor (MF) with C9: 2
[6]; [9]
  MIC90 of antimycotic combined with C9: 128
[6]; C11 3 µM
  Multiplicity factor (MF) with C11: 2
[6]; [10]
  MIC90 of antimycotic combined with C11: 128
[6]; C13 3 µM
  Multiplicity factor (MF) with C13: 2
[6]; [11]
  MIC90 of antimycotic combined with C13: 128
[6]; C15 3 µM
  Multiplicity factor (MF) with C15: 2
[6]; [12]
  MIC90 of antimycotic combined with C15: 128
[7]; C9 3 µM, |MF| = MIC90 alone/MIC90 with AAB
  Multiplicity factor (MF) with C9: 1
[7]; [9]
  MIC90 of antimycotic combined with C9: 128
[7]; C11 3 µM
  Multiplicity factor (MF) with C11: 1
[7]; [10]
  MIC90 of antimycotic combined with C11: 128
[7]; C13 3 µM
  Multiplicity factor (MF) with C13: 1
[7]; [11]
  MIC90 of antimycotic combined with C13: 128
[7]; C15 3 µM
  Multiplicity factor (MF) with C15: 1
[7]; [12]
  MIC90 of antimycotic combined with C15: 128
[8]
  Expression of ERG11 and ALS3: downregulation
